Measurements as given in US11214803B2, “Modulators of YAP1 expression” (Ionis Pharmaceuticals, Inc., priority 2019, dated 2022).
Strand notation (5' to 3'): a small letter for the sugar, then the base; units joined by * are phosphorothioate-linked, units joined directly phosphodiester-linked; [ ] holds rarer units or linkages, { } end groups; capitals alone tell only the bases. e = 2'-O-(2-methoxyethyl) (MOE); k = constrained ethyl (cEt); [5mC] = 5-methylcytosine; d = 2'-deoxy (DNA); m = 2'-O-methyl

System: Yap1 mRNA
Assay: Dose-dependent inhibition of human Yap1 in SNU-449 cells (Example 9, RTS36584)
Format: cell-based
Settings: free uptake; for % UTC (Yap1 mRNA): approximately 48 hours; for IC50: linear regression on a log/linear plot
Procedure: Modified oligonucleotides described in the studies above were tested at various doses in SNU-449 cells. Cultured SNU-449 cells at a density of 10,000 cells per well were treated using free uptake with modified oligonucleotides diluted to concentrations described in the tables below. After approximately 48 hours, Yap1 mRNA levels were measured as previously described using the Human Yap1 primer-probe set RTS36584. Yap1 mRNA levels were normalized to total RNA content, as measured by RIBOGREEN®. Results are presented in the tables below as percent control of the amount of Yap1 mRNA relative to untreated control cells (% UTC). IC50s were calculated using a linear regression on a log/linear plot of the data in excel.

Substance	% UTC (Yap1 mRNA) (31.3 nM) [% UTC]	% UTC (Yap1 mRNA) (125.0 nM) [% UTC]	% UTC (Yap1 mRNA) (500.0 nM) [% UTC]	% UTC (Yap1 mRNA) (2000.00 nM) [% UTC]	IC50 [nM]
1198466 (kA*kG*dA*dG*dT*dA*dT*dG*dT*dG*dG*e[5mC]*kA*eA*kT*eA; antisense) [compound 1198466]	68	44	18	6	100
1198832 (kG*k[5mC]*dA*d[5mC]*dT*dT*dT*dT*dA*d[5mC]*dA*kT*eT*kA*eG*kG; antisense) [compound 1198832]	77	53	23	13	100
1095481 (kT*kG*dA*dG*dG*dT*dA*dT*dA*dA*d[5mC]*dT*kG*eG*kG*e[5mC]) [compound 1095481]	73	47	16	8	100
1198624 (kA*k[5mC]*kT*dA*dA*dG*dT*dA*dA*dG*dG*dT*kT*kT*k[5mC]*e[5mC]; antisense) [compound 1198624]	62	37	21	9	100
1200858 (kA*kA*kG*dT*dG*mU*dA*dT*dG*dT*d[5mC]*dA*dG*kA*kA*kG; antisense) [compound 1200858]	71	39	14	4	100
1074462 (kG*kG*kA*dA*dA*dT*dT*dG*dT*d[5mC]*dT*d[5mC]*dA*kT*kG*k[5mC]; antisense) [compound 1074462]	90	38	13	3	100
1198397 (k[5mC]*dA*d[5mC]*dT*dT*dT*dT*dA*d[5mC]*dA*dT*kT*eA*kG*eG*kA; antisense) [compound 1198397]	70	53	28	14	100
1197236 (kT*kA*kT*dT*mA*dG*dA*dG*dT*dA*dT*dG*dT*kG*kG*k[5mC]; antisense) [compound 1197236]	64	46	25	14	100
1198856 (k[5mC]*kT*dT*dA*dT*dA*dT*dG*dG*dT*dT*kT*eT*kG*eT*kG; antisense) [compound 1198856]	72	55	24	7	100
1198510 (k[5mC]*kT*d[5mC]*dT*dT*dA*dT*dA*dT*dG*dG*eT*kT*eT*kT*eG; antisense) [compound 1198510]	71	44	18	6	100
1198698 (kA*kA*dG*dT*dG*dT*dA*dT*dG*dT*d[5mC]*dA*kG*eA*kA*eG) [compound 1198698]	55	29	8	2	30
1198918 (kG*k[5mC]*dA*d[5mC]*dT*dT*dT*dT*dA*d[5mC]*dA*kT*dT*kA*dG*kG) [compound 1198918]	60	33	13	9	50
1198202 (kG*kA*dA*dA*dT*dT*dG*dT*d[5mC]*dT*d[5mC]*eA*eT*eG*k[5mC]*k[5mC]; antisense) [compound 1198202]	83	46	16	5	100
1198382 (kT*dT*dA*dG*dA*dG*dT*dA*dT*dG*dT*kG*eG*k[5mC]*eA*kA; antisense) [compound 1198382]	77	56	36	18	200
1198297 (kA*kT*kT*dA*dG*dA*dG*dT*dA*dT*dG*dT*kG*eG*k[5mC]*eA) [compound 1198297]	67	42	16	7	100
1198384 (kT*dA*dT*dT*dA*dG*dA*dG*dT*dA*dT*kG*eT*kG*eG*k[5mC]; antisense) [compound 1198384]	76	50	24	17	100
